# Data as given in ChEMBL document CHEMBL3885861, “Open TG-GATES”.
# Organism: Rattus norvegicus
# Assay: Open TG-GATES - Regimen: Single
# Type: toxicity, organism-based, Sprague-Dawley
# Parameters: regimen Single, gender Male, age 6 weeks
# Conditions: in vivo, po, 0 mg/kg, route gavage, dose level Control; for APTT / Bas / Eos / Fbg / Hb / Ht / Lym / MCH / MCHC / MCV / Mono / Neu / PT / Plat / RBC / Ret / WBC: tissue Blood; for KIDNEY_L / KIDNEY_R / KIDNEY_TOTAL: tissue Kidney; for LIVER: tissue Liver; for A/G / ALP / ALT / AST / BUN / CRE / Ca / Cl / DBIL / GLC / IP / K / LDH / Na / PL / RALB / TBIL / TC / TG / TP / gamma-GTP: tissue Plasma
smiles,measurement,setting,value
COc1ccc(Cl)cc1C(=O)NCCc1ccc(S(=O)(=O)NC(=O)NC2CCCCC2)cc1 [GLYBURIDE],TERMINAL_BW,3 h,216 g
same,APTT,3 h,19.2 s
same,Bas,3 h,0%
same,Eos,3 h,1%
same,Fbg,3 h,221.2 mg/dL
same,Hb,3 h,13.2 g/dL
same,Ht,3 h,40.6%
same,Lym,3 h,70.4%
same,MCH,3 h,21 pg
same,MCHC,3 h,32.4%
same,MCV,3 h,64.7 fL
same,Mono,3 h,3%
same,Neu,3 h,24.4%
same,PT,3 h,12.3 s
same,Plat,3 h,125.5 x10_4/uL
same,RBC,3 h,628.8 x10_4/ul
same,Ret,3 h,8%
same,WBC,3 h,84.1 x10_2/uL
same,KIDNEY_L,3 h,1 g
same,KIDNEY_R,3 h,1 g
same,KIDNEY_TOTAL,3 h,1.9 g
same,LIVER,3 h,10.1 g
same,A/G,3 h,1.7
same,ALP,3 h,1085 IU/L
same,ALT,3 h,41.8 IU/L
same,AST,3 h,70.8 IU/L
same,BUN,3 h,11.8 mg/dL
same,CRE,3 h,0.4 mg/dL
same,Ca,3 h,11 mg/dL
same,Cl,3 h,104 meq/L
same,DBIL,3 h,0.2 mg/dL
same,GLC,3 h,191.6 mg/dL
same,IP,3 h,8.8 mg/dL
same,K,3 h,3.8 meq/L
same,LDH,3 h,166.6 IU/L
same,Na,3 h,141 meq/L
same,PL,3 h,187.6 mg/dL
same,RALB,3 h,3.5 g/dL
same,TBIL,3 h,0.2 mg/dL
same,TC,3 h,88 mg/dL
same,TG,3 h,160.2 mg/dL
same,TP,3 h,5.6 g/dL
same,gamma-GTP,3 h,0.8 IU/L
same,TERMINAL_BW,6 h,212.5 g
same,APTT,6 h,19.8 s
same,Bas,6 h,0%
same,Eos,6 h,1%
same,Fbg,6 h,228.6 mg/dL
same,Hb,6 h,13.6 g/dL
same,Ht,6 h,42.2%
same,Lym,6 h,70.2%
same,MCH,6 h,20.1 pg
same,MCHC,6 h,32.2%
same,MCV,6 h,62.4 fL
same,Mono,6 h,3.4%
same,Neu,6 h,24.2%
same,PT,6 h,12.5 s
same,Plat,6 h,122.5 x10_4/uL
same,RBC,6 h,676.8 x10_4/ul
same,Ret,6 h,7.8%
same,WBC,6 h,87.5 x10_2/uL
same,KIDNEY_L,6 h,1 g
same,KIDNEY_R,6 h,1 g
same,KIDNEY_TOTAL,6 h,2 g
same,LIVER,6 h,9.5 g
same,A/G,6 h,1.6
same,ALP,6 h,1140.4 IU/L
same,ALT,6 h,35 IU/L
same,AST,6 h,67.4 IU/L
same,BUN,6 h,8.8 mg/dL
same,CRE,6 h,0.4 mg/dL
same,Ca,6 h,10.9 mg/dL
same,Cl,6 h,103 meq/L
same,DBIL,6 h,0.092 mg/dL
same,GLC,6 h,207.2 mg/dL
same,IP,6 h,9.8 mg/dL
same,K,6 h,3.6 meq/L
same,LDH,6 h,159.4 IU/L
same,Na,6 h,141.2 meq/L
same,PL,6 h,148.6 mg/dL
same,RALB,6 h,3.5 g/dL
same,TBIL,6 h,0.2 mg/dL
same,TC,6 h,77.2 mg/dL
same,TG,6 h,65.2 mg/dL
same,TP,6 h,5.6 g/dL
same,gamma-GTP,6 h,1 IU/L
same,TERMINAL_BW,9 h,213.3 g
same,APTT,9 h,19.1 s
same,Bas,9 h,0%
same,Eos,9 h,1%
same,Fbg,9 h,220 mg/dL
same,Hb,9 h,13 g/dL
same,Ht,9 h,39.7%
same,Lym,9 h,77%
same,MCH,9 h,20.8 pg
same,MCHC,9 h,32.7%
same,MCV,9 h,63.6 fL
same,Mono,9 h,2.2%
same,Neu,9 h,18.8%
same,PT,9 h,12.7 s
same,Plat,9 h,133.8 x10_4/uL
same,RBC,9 h,625.4 x10_4/ul
same,Ret,9 h,8.1%
same,WBC,9 h,102.8 x10_2/uL
same,KIDNEY_L,9 h,0.9 g
same,KIDNEY_R,9 h,0.9 g
same,KIDNEY_TOTAL,9 h,1.9 g
same,LIVER,9 h,8.8 g
same,A/G,9 h,1.7
same,ALP,9 h,1066.8 IU/L
same,ALT,9 h,30.8 IU/L
same,AST,9 h,61.6 IU/L
same,BUN,9 h,10.8 mg/dL
same,CRE,9 h,0.4 mg/dL
same,Ca,9 h,10.1 mg/dL
same,Cl,9 h,102.2 meq/L
same,DBIL,9 h,0.09 mg/dL
same,GLC,9 h,216.2 mg/dL
same,IP,9 h,11.1 mg/dL
same,K,9 h,3.5 meq/L
same,LDH,9 h,125.8 IU/L
same,Na,9 h,140.8 meq/L
same,PL,9 h,137.4 mg/dL
same,RALB,9 h,3.4 g/dL
same,TBIL,9 h,0.1 mg/dL
same,TC,9 h,72.8 mg/dL
same,TG,9 h,52.2 mg/dL
same,TP,9 h,5.4 g/dL
same,gamma-GTP,9 h,1.6 IU/L
same,TERMINAL_BW,24 h,226.7 g
same,APTT,24 h,18.3 s
same,Bas,24 h,0.4%
same,Eos,24 h,1%
same,Fbg,24 h,218.6 mg/dL
same,Hb,24 h,13.2 g/dL
same,Ht,24 h,38%
same,Lym,24 h,77%
same,MCH,24 h,21.7 pg
same,MCHC,24 h,34.7%
same,MCV,24 h,62.4 fL
same,Mono,24 h,2.4%
same,Neu,24 h,18.6%
same,PT,24 h,12.5 s
same,Plat,24 h,126.2 x10_4/uL
same,RBC,24 h,609.6 x10_4/ul
same,Ret,24 h,7.7%
same,WBC,24 h,105.9 x10_2/uL
same,KIDNEY_L,24 h,1 g
same,KIDNEY_R,24 h,1 g
same,KIDNEY_TOTAL,24 h,2 g
same,LIVER,24 h,10.9 g
same,A/G,24 h,1.5
same,ALP,24 h,1024.2 IU/L
same,ALT,24 h,32.2 IU/L
same,AST,24 h,61.4 IU/L
same,BUN,24 h,16.4 mg/dL
same,CRE,24 h,0.4 mg/dL
same,Ca,24 h,10.7 mg/dL
same,Cl,24 h,102.2 meq/L
same,DBIL,24 h,0.1 mg/dL
same,GLC,24 h,215.6 mg/dL
same,IP,24 h,7.5 mg/dL
same,K,24 h,3.7 meq/L
same,LDH,24 h,189.6 IU/L
same,Na,24 h,141.2 meq/L
same,PL,24 h,146.2 mg/dL
same,RALB,24 h,3.3 g/dL
same,TBIL,24 h,0.2 mg/dL
same,TC,24 h,73.2 mg/dL
same,TG,24 h,97.8 mg/dL
same,TP,24 h,5.4 g/dL
same,gamma-GTP,24 h,1.4 IU/L
